Assays:
Format in all cases: biochemical
[1] = tested on: almond β-glucosidase; test: β-Glucosidase Inhibition Assay, pH 7.4
Protocol: (§1) The glycosidase inhibition activity is determined by modifying an assay procedure described in Evans et al, Phytochemistry, 22, pp. 768-770 (1983). More particularly, yeast α-glucosidase and almond β-glucosidase activities were measured by the Evans et al method which was modified by assaying activities at pH 7.4 in N-2-hydroxyethylpiperazine-N-2-ethane sulfonic acid (HEPES) buffer, measuring in 96 well microtiter plates, and including 10% DMSO in control and test samples.
(§2) The release of p-nitrophenol from the substrate p-nitrophenylglycoside was measured spectrophotometrically in the presence and absence of test compound. Each assay included a known inhibitor of the enzyme as a standard. IC50 values were determined for compounds which inhibited the enzymes more than 50& at a 1 millimolar concentration.
To 100 ul 50 mM HEPES buffer, pH 7.4, in a microtiter plate, 20 ul test compound in DMSO (DMSO alone in control) and 40 ul (0.136 units) β-glucosidase (Sigma) in HEPES buffer were added and pre-incubated at room temperature 15 minutes. 40 ul 1.25 mM p-nitrophenylβ-D-glucopyranoside in HEPES buffer was added as substrate and the absorbance change at 405 nm was monitored utilizing a Biotek EIA Autoreader. Absorption change was measured at 15 to 25 minutes (reaction is linear for at least 30 minutes). Each sample was tested in triplicate. IC50 values were determined from the linear portion of the log concentration vs percent inhibition curve obtained from a minimum of 3 points. Castanospermine was used as standard inhibitor.

[2] = target: T1, ALPHA MANNOSIDASE (Canavalia ensiformis, UniProt C0HJB3); test: Alpha mannosidase inhibition, pH 7.4; details: for inhibition at 1000 µM: @ 1 mM; for inhibition at 5000 µM: @ 5 mM
T1 sequence (C0HJB3 1-562 limits assumed): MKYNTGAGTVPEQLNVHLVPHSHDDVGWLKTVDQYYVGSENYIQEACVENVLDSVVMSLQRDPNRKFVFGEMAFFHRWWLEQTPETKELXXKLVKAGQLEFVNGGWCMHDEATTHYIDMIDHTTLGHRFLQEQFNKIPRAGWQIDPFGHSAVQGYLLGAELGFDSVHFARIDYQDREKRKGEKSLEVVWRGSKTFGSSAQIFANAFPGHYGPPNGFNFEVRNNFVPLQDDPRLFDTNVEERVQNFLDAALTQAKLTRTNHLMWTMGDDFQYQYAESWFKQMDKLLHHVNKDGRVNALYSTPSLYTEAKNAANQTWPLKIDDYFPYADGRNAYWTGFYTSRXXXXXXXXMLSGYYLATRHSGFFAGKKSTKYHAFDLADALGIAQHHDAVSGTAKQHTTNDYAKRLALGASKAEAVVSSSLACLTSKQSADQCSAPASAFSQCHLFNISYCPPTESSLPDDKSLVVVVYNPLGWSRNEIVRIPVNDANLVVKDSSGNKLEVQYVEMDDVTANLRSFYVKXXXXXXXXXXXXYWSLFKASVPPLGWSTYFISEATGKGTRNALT
T1 sequence (C0HJB3 563-981 limits assumed): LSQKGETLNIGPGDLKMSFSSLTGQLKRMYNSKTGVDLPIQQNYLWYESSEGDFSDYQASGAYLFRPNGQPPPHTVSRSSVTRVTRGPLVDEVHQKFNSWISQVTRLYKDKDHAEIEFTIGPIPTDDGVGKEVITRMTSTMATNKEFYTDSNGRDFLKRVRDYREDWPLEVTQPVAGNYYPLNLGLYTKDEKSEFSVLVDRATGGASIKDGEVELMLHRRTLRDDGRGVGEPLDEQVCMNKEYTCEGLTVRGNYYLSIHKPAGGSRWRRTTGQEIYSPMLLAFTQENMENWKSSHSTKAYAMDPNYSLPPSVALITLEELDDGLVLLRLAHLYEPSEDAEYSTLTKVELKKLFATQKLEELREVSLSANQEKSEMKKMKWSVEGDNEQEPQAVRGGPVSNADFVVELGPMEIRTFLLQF

[3] = tested on: almond β-glucosidase; test: β-Glucosidase Inhibition Assay, pH 4.8
Protocol: as §1, §2
To 100 ul 50 mM sodium citrate buffer, pH 4.8, in a microtiter plate, 20 ul test compound in DMSO (DMSO alone in control) and 20 ul (0.017 units) β-glucosidase (Sigma) in citrate buffer were added and pre-incubated at room temperature 15 minutes. 20 ul 2.50 mM p-nitrophenyl-β-D-glucopyranside in citrate buffer was added as substrate and incubated at room temperature 20 minutes (reaction is linear for at least 30 minutes). 50 ul 0.4 M NaOH was added and the absorption change at 405 nm was determined utilizing a Biotek EIA Autoreader. Each sample was tested in triplioate. IC50 values were determined from the linear portion of the log concentration vs percent inhibition curve obtained from a minimum of 3 points. Castanospermine was used as standard inhibitor.

[4] = target: T2, yeast α-glucosidase (Saccharomyces cerevisiae, UniProt P53341); test: α-Glucosidase Inhibition Assay, pH 7.4; details: read-out: ALPHA GLUCOSIDASE inhibition; for inhibition at 1000 µM: @ 1 mM; for inhibition at 5000 µM: @ 5 mM
T2 construct: purchased Sigma
T2 sequence (P53341 whole entry): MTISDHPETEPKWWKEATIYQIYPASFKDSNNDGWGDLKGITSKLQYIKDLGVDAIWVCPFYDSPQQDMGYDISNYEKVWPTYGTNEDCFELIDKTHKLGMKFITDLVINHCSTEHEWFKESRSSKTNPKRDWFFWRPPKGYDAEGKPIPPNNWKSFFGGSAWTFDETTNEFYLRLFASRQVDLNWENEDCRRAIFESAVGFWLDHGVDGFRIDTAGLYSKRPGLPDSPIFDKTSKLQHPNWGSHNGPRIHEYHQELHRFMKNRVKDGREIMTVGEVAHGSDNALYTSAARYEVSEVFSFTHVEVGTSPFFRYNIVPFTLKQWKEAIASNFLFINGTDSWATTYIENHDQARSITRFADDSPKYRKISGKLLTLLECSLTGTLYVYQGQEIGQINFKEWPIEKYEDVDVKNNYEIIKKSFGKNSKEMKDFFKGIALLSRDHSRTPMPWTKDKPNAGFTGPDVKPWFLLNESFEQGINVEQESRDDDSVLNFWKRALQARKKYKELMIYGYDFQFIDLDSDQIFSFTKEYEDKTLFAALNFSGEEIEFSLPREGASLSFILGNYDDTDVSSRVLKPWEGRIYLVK
Protocol: as §1, §2
To 100 ul 50 mM HEPES buffer, pH 7.4, in a microtiter plate, 20 ul test compound in DMSO (DMSO alone in control)and 40 ul (0.013 units) yeast α-glucosidase (Sigma) in HEPES buffer were added and pre-incubated at room temperature 15 minutes. 40 ul 1.25 mM p-nitro-phenyl-α-D-glucopyranoside (Sigma) in HEPES buffer, as substrate was added and the absorbance change at 405 nm was monitored in a Biotek EIA Autoreader. Absorption change was measured at 15 to 25 minutes (reaction was linear for at least 30 minutes). Each sample was tested in triplicate. IC50 values were determined from the linear portion of the log concentration vs percent inhibition curve obtained from a minimum of 3 points. Deoxynojirimycin was used as standard inhibitor.

[5] = target: T1, ALPHA MANNOSIDASE; test: Alpha mannosidase inhibition, pH 4.5; details: for inhibition at 1000 µM: @ 1 mM; for inhibition at 5000 µM: @ 5 mM

| Compound | BETA GLUCOSIDASE-pH 7.4 inhibition ([1]; @ 1 mM) [%] | BETA GLUCOSIDASE-pH 7.4 inhibition ([1]; @ 5 mM) [%] | inhibition at 1000 µM [2] [%] | inhibition at 5000 µM [2] [%] | BETA GLUCOSIDASE-pH 4.8 inhibition ([3]; @ 1 mM) [%] | BETA GLUCOSIDASE-pH 4.8 inhibition ([3]; @ 5 mM) [%] | inhibition at 1000 µM [4] [%] | inhibition at 5000 µM [4] [%] | inhibition at 1000 µM [5] [%] | inhibition at 5000 µM [5] [%] |
| --- | --- | --- | --- | --- | --- | --- | --- | --- | --- | --- |
| CCCCN1C[C@H](F)[C@@H](O)[C@H](O)[C@H]1CO [Compound 2, N-butyl-1,2-dideoxy-2-fluoronojirimycin] | 4 | 11 | 4 | 12 | 2 | -6 | 8 | 13 | 3 | 5 |
| OC[C@H]1NC[C@H](F)[C@@H](O)[C@@H]1O [Compound 1, 1,2-dideoxy-2-fluoronojirimycin] | 11 | 25 | 19 | 11 | 6 | 25 | 24 | 64 | 4 | 5 |

From patent US5175168A, “Intermediates for 1,2-dideoxy-2-fluoronojirimycin” (Monsanto Company, priority 1991, dated 1992)
